Legend:
[1] = Acute oral toxicity, LD50 (Table 2); conditions: in vivo, mouse, P.O.
Protocol: The extremely low toxicities of the present acid-amide compounds are illustrated in Table 2, in which the acute toxicities of some of the present compounds in mice are listed.
As is seen from Table 2, no fatal case and no significant toxic symptoms were observed even in such large doses (per os) as 0.5 g. per 10 g., namely 50 g./kg. of the body weight. Also, no significant toxic symptoms, or fatal cases, were observed when the amides in amounts of 1, 0.5 or 0.2% in the diet were administered to mice everyday for three weeks. The appetite was normal and digestive functions were unchanged. When the internal organs were inspected by dissection, there was no appreciable change.

Serum cholesterol = Serum cholesterol of rabbits fed a cholesterol rich diet; assay type: in vivo; conditions: 200 mg/day with cholesterol rich diet
[2] = system: total cholesterol value in the blood serum; assay: Total cholesterol in blood serum of mice fed a diet enriched with cholesterol and bile acids (Table 1); assay type: in vivo; conditions: 0.2% in diet, oral, 8 to 12 days
Protocol: The effectiveness of the compounds was tested by using mice fed on a specific diet which was enriched with cholesterol and bile acids. […] The amide compound as well was mixed with the specific diet in an amount of 0.2%, and continuously administered orally for 8 to 12 days. Then the total cholesterol value in the blood serum of the animals was evaluated.

liver cholesterol = assay: Liver cholesterol (deposition of cholesterol and fat in the liver) of mice fed a cholesterol-rich diet (Table 1); assay type: in vivo; conditions: 0.2% in diet, oral, 8 to 12 days

CCCCC/C=C\C/C=C\CCCCCCCC(=O)NC(Cc1ccccc1)c1ccccc1 (stereo not drawn)
LD50 [1]: > 50000 mg/kg

CCCCC/C=C\C/C=C\CCCCCCCC(=O)N(C1CCCCC1)C1CCCCC1 [N,N-dicyclohexyl linoleamide]
Serum cholesterol (Serum cholesterol; 2 weeks, control 250): 250 mg. % | Serum cholesterol (Serum cholesterol; 4 weeks, control 563): 120 mg. % | Serum cholesterol (Serum cholesterol; 6 weeks, control 890): 62 mg. % | Serum cholesterol (Serum cholesterol; 8 weeks, control 1150): 62 mg. % | Serum cholesterol (Serum cholesterol; 10 weeks, control 1750): 65 mg. %

CC/C=C\C/C=C\C/C=C\CCCCCCCC(=O)NC(Cc1ccccc1)c1ccccc1 (stereo not drawn) [drawing 32]
Serum cholesterol ([2]; experiment [V], control 372): 238 mg % | Liver cholesterol (liver cholesterol; experiment [V], control 2640): 729 mg/100 g.

CCCCCCCC/C=C\CCCCCCCC(=O)NC(Cc1ccccc1)c1ccccc1 (stereo not drawn) [drawing 33]
Serum cholesterol ([2]; experiment [V], control 372): 245 mg % | Liver cholesterol (liver cholesterol; experiment [V], control 2640): 831 mg/100 g.

CCCCC/C=C\C/C=C\CCCCCCCC(=O)NC(C)c1ccc([N+](=O)[O-])cc1 (stereo not drawn) [drawing 44]
Serum cholesterol ([2]; experiment [VIII], control 472): 340 mg % | Liver cholesterol (liver cholesterol; experiment [VIII], control 2652): 1603 mg/100 g.

CCCCC/C=C\C/C=C\CCCCCCCC(=O)NC12CC3CC(CC(C3)C1)C2 [drawing 53]
Serum cholesterol ([2]; experiment [IX], control 336): 288 mg % | Liver cholesterol (liver cholesterol; experiment [IX], control 2200): 721 mg/100 g.

CCCCC/C=C\C/C=C\CCCCCCCC(=O)NC(C)c1ccc(C)cc1 (stereo not drawn) [drawing 61]
Serum cholesterol ([2]; experiment [X], control 554): 228 mg % | Liver cholesterol (liver cholesterol; experiment [X], control 3293): 820 mg/100 g.

CCCCCCCC/C=C\CCCCCCCC(=O)NC(C)c1ccc(CC)cc1 (stereo not drawn) [drawing 63]
Serum cholesterol ([2]; experiment [X], control 554): 398 mg % | Liver cholesterol (liver cholesterol; experiment [X], control 3293): 1210 mg/100 g.

CCCCCCCC/C=C\CCCCCCCC(=O)NC(C)c1ccc(CC)cc1 (stereo not drawn) [drawing 64]
Serum cholesterol ([2]; experiment [X], control 554): 254 mg % | Liver cholesterol (liver cholesterol; experiment [X], control 3293): 841 mg/100 g.

CC/C=C\C/C=C\C/C=C\CCCCCCCC(=O)NC(C)c1ccc(C)cc1 (stereo not drawn) [drawing 66]
Serum cholesterol ([2]; experiment [X], control 554): 249 mg % | Liver cholesterol (liver cholesterol; experiment [X], control 3293): 1000 mg/100 g.

CC/C=C\C/C=C\C/C=C\CCCCCCCC(=O)NC(C)c1ccc(C)cc1 (stereo not drawn) [drawing 67]
Serum cholesterol ([2]; experiment [X], control 554): 295 mg % | Liver cholesterol (liver cholesterol; experiment [X], control 3293): 1015 mg/100 g.

CCCCC/C=C\C/C=C\CCCCCCCC(=O)NC(C)c1ccc(Cl)cc1 (stereo not drawn) [drawing 72]
Serum cholesterol ([2]; experiment [XI], control 595): 230 mg % | Liver cholesterol (liver cholesterol; experiment [XI], control 3451): 845 mg/100 g.

CCCCC/C=C\C/C=C\CCCCCCCC(=O)NC(C)c1ccc([N+](=O)[O-])cc1 (stereo not drawn) [drawing 73]
Serum cholesterol ([2]; experiment [XI], control 595): 275 mg % | Liver cholesterol (liver cholesterol; experiment [XI], control 3451): 1011 mg/100 g.

CCCCC/C=C\C/C=C\CCCCCCCC(=O)NC(C)c1ccc([N+](=O)[O-])cc1 (stereo not drawn) [drawing 74]
Serum cholesterol ([2]; experiment [XI], control 595): 315 mg % | Liver cholesterol (liver cholesterol; experiment [XI], control 3451): 1098 mg/100 g.

CCCCCCCC/C=C\CCCCCCCC(=O)NC(C)c1ccc(Br)cc1 (stereo not drawn) [drawing 78]
Serum cholesterol ([2]; experiment [XI], control 595): 253 mg % | Liver cholesterol (liver cholesterol; experiment [XI], control 3451): 921 mg/100 g.

CCCCCCCC/C=C\CCCCCCCC(=O)NC(C)c1ccc(Br)cc1 (stereo not drawn) [drawing 79]
Serum cholesterol ([2]; experiment [XI], control 595): 277 mg % | Liver cholesterol (liver cholesterol; experiment [XI], control 3451): 1009 mg/100 g.

CCCCCCCC/C=C\CCCCCCCC(=O)NC(CC)c1cccc([N+](=O)[O-])c1 (stereo not drawn) [drawing 81]
Serum cholesterol ([2]; experiment [XI], control 595): 289 mg % | Liver cholesterol (liver cholesterol; experiment [XI], control 3451): 906 mg/100 g.

CCCCCCCC/C=C\CCCCCCCC(=O)NC(CC)c1cccc([N+](=O)[O-])c1 (stereo not drawn) [drawing 82]
Serum cholesterol ([2]; experiment [XI], control 595): 315 mg % | Liver cholesterol (liver cholesterol; experiment [XI], control 3451): 1125 mg/100 g.

CCCCCCCC/C=C\CCCCCCCC(=O)NC(C)c1ccc(OC)cc1 (stereo not drawn) [drawing 84]
Serum cholesterol ([2]; experiment [XI], control 595): 306 mg % | Liver cholesterol (liver cholesterol; experiment [XI], control 3451): 1069 mg/100 g.

CCCCCCCC/C=C\CCCCCCCC(=O)NC(C)c1ccc(OC)cc1 (stereo not drawn) [drawing 85]
Serum cholesterol ([2]; experiment [XI], control 595): 318 mg % | Liver cholesterol (liver cholesterol; experiment [XI], control 3451): 1115 mg/100 g.

— patent US3995059A, “Pharmaceutical compositions containing fatty acid amide derivatives” (Sumitomo Chemical Company, Limited, priority 1966, dated 1976)
